Measurements as given in patent publication US7129273B2, “Dicreatine Malate” (Creative Compounds, LLC, priority 2003, dated 2006).

Assays:
[1] = tested on: burn victims; conditions: compared with molar equivalents of ornithine base and alpha-ketoglutaric acid taken separately; cited from earlier work
[2] = metabolic properties and overall effectiveness as a supplement, compared with other creatine forms; type: in vivo
[3] = absorption / bioavailability after oral supplementation; type: in vivo
[4] = problems associated with creatine supplementation (cramping, bloating); type: in vivo; conditions: compared with other creatine supplementation
[5] = tested on: ATP production; assay: production of ATP (high energy phosphate molecules); conditions: compared with additive effects of creatine and malic acid taken separately
[6] = compared with any other form of creatine or malic acid supplement currently available
[7] = compared to creatine monohydrate

## NCCC[C@H](N)C(=O)O [ornithine alpha-ketoglutarate]
[1]
  anti-catabolic effect: strong anti-catabolic effect on burn victims far greater in effect than what is produced by merely combining the effects of the molar equivalents

## CN(CC(=O)O)C(=N)N.O=C(O)CC(O)C(=O)O [monocreatine malate, reference compound]
[2]; comparison with dicreatine malate, inventors' experience
  effect compared with dicreatine malate: inferior to the dicreatine malate

## dicreatine malate
[3]; [6]
  absorption: more readily absorbed
[3]; compared with individual bioavailabilities of creatine monohydrate and malic acid
  bioavailabilities of the creatine and malic acid moieties: increase the bioavailablities of both the creatine and malic acid moieties
[4]
  problems associated with creatine supplementation (cramping, bloating, bioavailability issues): decreasing some of the problems associated with other creatine supplementation
[5]
  production of ATP: increases the production of ATP to a much greater extent than what would be expected by the mere additive effects
[2]; [7]
  decreasing adipose stores: enhanced efficacy for decreasing adipose stores
  increasing cell volumization: enhanced efficacy for increasing cell volumization
  increasing muscle mass: enhanced efficacy for increasing muscle mass
  increasing overall strength and endurance: enhanced efficacy for increasing for increasing overall strength and endurance
[2]; [6]
  effectiveness: much more effective
